In assay [1] the test system is chick embryo heart cells. Nature of the assay: Effect on proliferation of chick embryo heart cells in the presence of a growth inhibitor, KCN (Experiments 3 and 4). As to conditions: for activity at 50 µg/mL / activity at 20 µg/mL: Gallus gallus; for activity at 20 µg/mL: 24 h. Format: cell-based. Here is the method: After washing with calcium and magnesium-free phosphate buffered saline (PBS), the pieces of hearts were treated with a solution of 0.1% trypsin in PBS freed from calcium and magnesium ions, and the supernatant fraction was discarded. The residue was treated with a solution of 0.1% trypsin in PBS freed from calcium and magnesium ions, and the supernatant fractions containing isolated cells were collected. The procedure was repeated 3 times. The supernatant fractions were combined and diluted with cold culture medium containing 10% fetal calf serum, sodium penicillin G (100 units per ml) and sulfate streptomycin (1 μg per ml), and centrifuged at 150 xG. […] One ml of the suspension was poured into each of 28 culture tubes which were equally divided into 7 groups. The cells were cultured at 37° C in an incubator. After 1 day of incubation the culture medium of the tubes was removed and 1 ml of each culture medium containing compound shown in Table I was added thereto. After additional 3 days of incubation the culture medium was removed and the cells were then treated with 1 ml of 0.1 M citric acid containing 0.1% crystal violet. The number of cells was counted with a hemocytometer in quadruplicate after vigorous shaking. […] After 3 days of incubation, the culture medium was removed and 1 ml of each culture medium containing compounds shown in Table II was added thereto. After an additional 1 day of incubation the number of cells was counted. […] Method: The culture procedure for chick embryo heart cells was employed as described in Experiment 1. After one day of incubation, the culture medium was removed and 1 ml of each culture medium containing KCN (1.7 μg per ml) and compounds shown in Table III were added thereto.

The subject of assay [2] is chick embryo heart cells. Description: Effect on proliferation of chick embryo heart cells (Experiments 1 and 2). As to conditions: for Cell number + S.E. / activity at 50 µg/mL: Experiment 1, 50 μg/ml; for Cell number + S.E.: 3 days incubation; for activity at 50 µg/mL / activity at 20 µg/mL: Gallus gallus, control = 100.0; for activity at 50 µg/mL: 72 h, read-out: Growth rate %; for Cell number ± S.E. / activity at 20 µg/mL: Experiment 2, 20 μg/ml; for Cell number ± S.E.: 1 day with compound after 3 days of incubation; for activity at 20 µg/mL: 24 h, read-out: Growth rate (%). Format: cell-based. On the procedure:
A. Effect of S-inosylcysteine on proliferation of chick embryo heart cells.
(§1) Method: The hearts excised from 13-day-old chick embryos were cut into pieces 1 to 2 mm in diameter under sterile conditions. After washing with calcium and magnesium-free phosphate buffered saline (PBS), the pieces of hearts were treated with a solution of 0.1% trypsin in PBS freed from calcium and magnesium ions, and the supernatant fraction was discarded. The residue was treated with a solution of 0.1% trypsin in PBS freed from calcium and magnesium ions, and the supernatant fractions containing isolated cells were collected. The procedure was repeated 3 times. The supernatant fractions were combined and diluted with cold culture medium containing 10% fetal calf serum, sodium penicillin G (100 units per ml) and sulfate streptomycin (1 μg per ml), and centrifuged at 150 xG. The resulting pellet was washed twice with the culture medium and diluted cautiously with the same culture medium to give a suspension which contains 200,000 cells per ml. One ml of the suspension was poured into each of 28 culture tubes which were equally divided into 7 groups. The cells were cultured at 37° C in an incubator. After 1 day of incubation the culture medium of the tubes was removed and 1 ml of each culture medium containing compound shown in Table I was added thereto. After additional 3 days of incubation the culture medium was removed and the cells were then treated with 1 ml of 0.1 M citric acid containing 0.1% crystal violet. The number of cells was counted with a hemocytometer in quadruplicate after vigorous shaking.
(§2) Method: The culture procedure for chick embryo heart cells was employed as described in Experiment 1. After 3 days of incubation, the culture medium was removed and 1 ml of each culture medium containing compounds shown in Table II was added thereto. After an additional 1 day of incubation the number of cells was counted.

For assay [3], the system named is pylorus ligation ulcer. Description: Effect on pylorus ligation ulcer in rats (Experiments 6 and 7). Format: in vivo, Male Wister rats. Conditions: Experiment 6, 50 mg/kg, p.o.; for Mean ulcer index ± S.E.: 10 hours from ligation. On the procedure: a. Effect of S-inosylcysteine on pylorus ligation ulcer.
Method: Male Wister rats (Keari Gifu-Lab.), aged 7 weeks were used. After fasting for 48 hours, rats weighing 210 to 230 g were divided into 6 groups of 10 rats. The pylorus of stomach was ligated under light anesthesia with pentobarbital sodium (25 mg per kg, i.p.). Immediately after the ligation, a psysiological saline was orally administered to one group and a solution of each tested compound (50 mg per kg) was orally administered to the remaining 5 groups. After these rats were kept without food and water for 10 hours from the ligation, the stomach was removed under anesthesia with pentobarbital sodium (30 mg per kg, i.p.). The gastric contents were aspirated and the stomach was fixed by means of the injection of 10 ml of a 2% formalin solution into the lumen. The stomach was opened along its greater curvature. The severity of the lesion of the rumen, that is, the degree of ulcer was expressed as ulcer index according to the method of Yokotani (Folia pharmacol. Japon. 56, 1373, (1960). The results are shown in Table VI.
*Inhibition rate was calculated as follows: […]
Method: The same method as described in Experiment 6 was employed. The
effect of S-inosyl-L-cysteine
on pylorus ligation ulcer was examined with intramuscular administration.

Assay [4] has as its system chick embryo heart cells. Nature of the assay: Effect on proliferation of chick embryo heart cells in the presence of 6-mercaptopurine (Experiment 5). The class given is cell-based. Conditions: Experiment 5, 20 μg/ml, 6-mercaptopurine 5 μg per ml; for activity at 20 µg/mL: Gallus gallus, 24 h. On the procedure: as §1, §2
Method: Same as in Experiment 2 except that 6-mercaptopurine (5 μg per
ml) was added to each culture

[5] abbreviates: Experiment 3, 50 μg/ml, KCN 1.7 μg per ml.
[6] abbreviates: Experiment 3, 50 μg/ml, KCN 1.7 μg per ml, KCN control = 100.0, read-out: Growth Rate %.
The mark [7] stands for this setting: Experiment 3, 50 μg/ml, KCN 1.7 μg per ml, simultaneous with Experiment 1, read-out: Growth rate (%) with respect to control of Table I.
The mark [8] stands for this setting: Experiment 4, 20 μg/ml, KCN 1.7 μg per ml.
The mark [9] stands for this setting: Experiment 4, 20 μg/ml, KCN 1.7 μg per ml, KCN control = 100.0, read-out: Growth rate (%).
[10] abbreviates: Experiment 4, 20 μg/ml, KCN 1.7 μg per ml, simultaneous with Experiment 2, read-out: Growth rate (%) with respect to control of Table II.
Where [11] appears, read: its control = 100.0, read-out: Growth Rate (%).
Where [12] appears, read: simultaneous with Experiment 2, read-out: Growth rate (%) with respect to control of Table II.

Molecules are shown by their SMILES.

Turning to `N[C@@H](CS)C(=O)O` [L-cysteine], in assay [1] (setting [5]), the “Cell number ± S.E.” value is 41.9 ± 6.3 ×10^4 cells. Moreover, the values for the activity at 50 µg/mL in assay [1] (setting [6]), in assay [1] (setting [7]) and in assay [2] were 131%, 82.3% and 99.2%, respectively. In assay [2], the “Cell number + S.E.” value was 50.5 ± 1.3 ×10^4 cells.
For the compound `Nc1ncnc2c1ncn2[C@@H]1O[C@H](CSC[C@H](N)C(=O)O)[C@@H](O)[C@H]1O` [S-adenosyl-L-cysteine], the entries for the “Cell number ± S.E.” value in assay [1] (setting [8]), in assay [2] and in assay [4] were 64.2 ± 3.0 ×10^4 cells, 74.8 ± 4.7 ×10^4 cells and 70.7 ± 1.2 ×10^4 cells, respectively. Besides, the activity at 20 µg/mL came to 97.6% in assay [1] (setting [9]); 78.7% in assay [1] (setting [10]); 91.7% in assay [2]; 104% in assay [4] (setting [11]); 86.6% in assay [4] (setting [12]). For the same compound, in assay [3], the “Inhibition rate (%) of ulcer” value is 13%. Further, the “Mean ulcer index ± S.E.” value in assay [3] came out at 12.1 ± 1.2.
Consider `Nc1ncnc2c1ncn2[C@@H]1O[C@H](CSCC[C@H](N)C(=O)O)[C@@H](O)[C@H]1O` [S-adenosyl-L-homocysteine], for which the figures for the “Cell number ± S.E.” value in assay [1] (setting [8]), in assay [2] and in assay [4] were 65.2 ± 1.8 ×10^4 cells, 71.5 ± 3.4 ×10^4 cells and 75.7 ± 1.6 ×10^4 cells, respectively. In addition, the activity at 20 µg/mL is 99.1% in assay [1] (setting [9]); 79.9% in assay [1] (setting [10]); 87.6% in assay [2]; 111% in assay [4] (setting [11]); 92.8% in assay [4] (setting [12]). Also, in assay [3], the “Inhibition rate (%) of ulcer” value stood at 19%. In addition, the “Mean ulcer index ± S.E.” value in assay [3] worked out at 11.3 ± 0.7.
`Nc1nc2c(ncn2[C@@H]2O[C@H](CSCC[C@H](N)C(=O)O)[C@@H](O)[C@H]2O)c(=O)[nH]1` [S-guanosyl-L-homocysteine]: the results for the “Cell number ± S.E.” value in assay [1] (setting [8]), in assay [2] and in assay [4] were 66.3 ± 1.4 ×10^4 cells, 69.2 ± 1.8 ×10^4 cells and 72.3 ± 5.5 ×10^4 cells, respectively. Besides, the activity at 20 µg/mL in assay [1] (setting [9]) worked out at 101%; in assay [1] (setting [10]), 81.3%; in assay [2], 84.8%; in assay [4] (setting [11]) it was 106%; in assay [4] (setting [12]) it was 88.6%. In assay [3], the “Inhibition rate (%) of ulcer” value is -8%. In addition, the “Mean ulcer index ± S.E.” value in assay [3] came to 15.0 ± 1.8.
As to `N[C@@H](CCSC[C@H]1O[C@@H](n2cnc3c(=O)[nH]cnc32)[C@H](O)[C@@H]1O)C(=O)O` [S-inosyl-L-homocysteine], the “Cell number ± S.E.” value in assay [1] (setting [8]) is 73.5 ± 1.7 ×10^4 cells; in assay [2] it was 78.2 ± 7.5 ×10^4 cells; in assay [4], 65.3 ± 3.7 ×10^4 cells. The activity at 20 µg/mL was found to be 112% in assay [1] (setting [9]); 90.1% in assay [1] (setting [10]); 95.8% in assay [2]; 95.6% in assay [4] (setting [11]); 80% in assay [4] (setting [12]). The “Inhibition rate (%) of ulcer” value in assay [3] amounted to 12%. The “Mean ulcer index ± S.E.” value in assay [3] came out at 12.3 ± 1.1.
Turning to `Nc1ncnc2c1ncn2[C@@H]1O[C@H](CO)[C@@H](O)[C@H]1O` [adenosine], the “Cell number ± S.E.” value in assay [1] (setting [5]) is recorded as 33.3 ± 1.9 ×10^4 cells. For the same compound, the activity at 50 µg/mL in assay [1] (read-out: Growth Rate %) was 104%; in assay [1] (read-out: Growth rate (%) with respect to control of Table I) it was 65.4%; in assay [2] it was 86.6%. The “Cell number + S.E.” value in assay [2] was 44.1 ± 5.6 ×10^4 cells.
As for `OC[C@H]1O[C@@H](n2cnc3c(O)ncnc32)[C@H](O)[C@@H]1O` [inosine], in assay [1] (setting [5]), the “Cell number ± S.E.” value is listed as 37.2 ± 4.4 ×10^4 cells. Also, the activity at 50 µg/mL in assay [1] (setting [6]) is 116%; in assay [1] (setting [7]) it was 73.1%; in assay [2] it was 106%. In assay [2], the “Cell number + S.E.” value was 54.1 ± 2.0 ×10^4 cells.

Source of the values: patent US4011221A, “S-Inosylcysteine and a process for producing the same” (Funai Pharmaceutical Industries, Ltd., priority 1974, dated 1977).
